{"source": "ChEMBL document CHEMBL1201862", "about": "“PubChem BioAssay data set” (2004)", "key": {"[1]": {"molecular_target": "Peroxisome proliferator-activated receptor gamma/Nuclear receptor coactivator 1 (Homo sapiens, UniProt P37231)", "assay": "(§1) TR-FRET dose response biochemical High Throughput Screening assay for agonists of the steroid receptor coactivator 1 (SRC-1) recruitment by the peroxisome proliferator-activated receptor gamma (PPAR gamma): non-selective agonists. [Related pubchem assays (depositor defined):AID1300, AID1808, AID504735, AID631]", "assay_type": "protein assay"}, "[2]": {"molecular_target": "Peroxisome proliferator-activated receptor gamma/Nuclear receptor coactivator 3 (Homo sapiens, UniProt P37231)", "assay": "as §1, with “3 (SRC-3)” for “1 (SRC-1)”, “assays: 1301 (Confirmation screen.), 1048 (Primary screen.)]” for “assays (depositor defined):AID1300, AID1808, AID504735, AID631]”", "assay_type": "functional"}, "Leucine aminopeptidase": {"molecular_target": "T1, Leucine aminopeptidase (Plasmodium falciparum 3D7, UniProt Q8IL11)", "T1 sequence (Q8IL11 whole entry)": "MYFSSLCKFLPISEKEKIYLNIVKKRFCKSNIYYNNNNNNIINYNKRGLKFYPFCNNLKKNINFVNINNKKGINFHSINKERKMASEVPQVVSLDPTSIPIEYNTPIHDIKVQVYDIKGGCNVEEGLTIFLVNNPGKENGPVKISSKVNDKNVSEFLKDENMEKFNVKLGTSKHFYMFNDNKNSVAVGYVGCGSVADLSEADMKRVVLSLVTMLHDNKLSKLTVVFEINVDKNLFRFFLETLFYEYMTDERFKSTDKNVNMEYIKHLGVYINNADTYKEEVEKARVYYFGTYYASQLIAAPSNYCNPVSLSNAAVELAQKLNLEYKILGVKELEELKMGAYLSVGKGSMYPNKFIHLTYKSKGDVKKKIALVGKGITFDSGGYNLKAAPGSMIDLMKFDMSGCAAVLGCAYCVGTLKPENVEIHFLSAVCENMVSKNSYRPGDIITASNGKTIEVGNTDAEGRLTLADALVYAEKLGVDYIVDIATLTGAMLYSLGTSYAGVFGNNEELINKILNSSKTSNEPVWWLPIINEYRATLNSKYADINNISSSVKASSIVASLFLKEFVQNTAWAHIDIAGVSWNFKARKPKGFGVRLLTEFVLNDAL", "assay": "P. falciparum M17LAP inhibitors, primary screen, biochemical, fluorogenic H-Leu-NHMec substrate, 1536-well (AID 1619)", "assay_type": "functional"}, "[3]": {"molecular_target": "T2, Polyadenylate-binding protein 1 (Homo sapiens, UniProt P11940)", "T2 sequence (P11940 whole entry, the tested form may be a part)": "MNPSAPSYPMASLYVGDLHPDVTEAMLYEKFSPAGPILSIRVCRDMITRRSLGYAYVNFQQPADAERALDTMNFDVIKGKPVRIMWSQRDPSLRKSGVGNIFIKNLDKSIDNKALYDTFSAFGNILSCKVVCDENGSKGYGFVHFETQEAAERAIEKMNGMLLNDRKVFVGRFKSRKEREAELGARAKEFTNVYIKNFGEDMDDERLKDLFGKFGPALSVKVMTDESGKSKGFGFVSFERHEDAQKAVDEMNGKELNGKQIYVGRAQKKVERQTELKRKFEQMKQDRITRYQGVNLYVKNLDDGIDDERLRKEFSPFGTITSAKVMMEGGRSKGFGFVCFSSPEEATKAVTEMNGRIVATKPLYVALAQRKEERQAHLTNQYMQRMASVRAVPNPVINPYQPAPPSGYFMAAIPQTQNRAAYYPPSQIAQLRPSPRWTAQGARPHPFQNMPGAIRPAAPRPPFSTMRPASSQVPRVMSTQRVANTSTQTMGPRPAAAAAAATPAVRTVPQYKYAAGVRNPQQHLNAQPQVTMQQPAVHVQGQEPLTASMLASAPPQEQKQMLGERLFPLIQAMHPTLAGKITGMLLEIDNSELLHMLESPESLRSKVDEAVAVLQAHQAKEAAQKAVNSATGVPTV", "assay": "MLLE domain peptide-binding blockers, IC50 – biochemical, fluorescence polarization, FITC-PAM2 peptide, dose response (AID 602259)", "assay_type": "functional", "details": "read-out: IC50_Mean"}, "[4]": {"molecular_target": "T2, Polyadenylate-binding protein 1", "assay": "MLLE binding blockers, Cy5 peptide tracer – biochemical, fluorescence polarization, Cy5-PAM2 peptide, secondary, miRNA deadenylation inhibitor project, dose response (AID 602260)", "assay_type": "functional", "details": "read-out: IC50_Mean"}, "[5]": {"molecular_target": "Peroxisome proliferator-activated receptor gamma/Nuclear receptor coactivator 2 (Homo sapiens, UniProt P37231)", "assay": "TR-FRET dose response biochemical High Throughput Screening assay for agonists of the steroid receptor coactivator 2 (SRC-2) recruitment by the peroxisome proliferator-activated receptor gamma (PPAR gamma): non-selective agonists. [Related pubchem assays: 1297, 1032 ]", "assay_type": "functional"}, "[6]": {"molecular_target": "T3, Voltage-gated N-type calcium channel alpha-1B subunit/Amyloid beta A4 precursor protein-binding family A member 1 (Homo sapiens, UniProt Q00975+Q02410)", "T3 sequence (Q00975 whole entry)": "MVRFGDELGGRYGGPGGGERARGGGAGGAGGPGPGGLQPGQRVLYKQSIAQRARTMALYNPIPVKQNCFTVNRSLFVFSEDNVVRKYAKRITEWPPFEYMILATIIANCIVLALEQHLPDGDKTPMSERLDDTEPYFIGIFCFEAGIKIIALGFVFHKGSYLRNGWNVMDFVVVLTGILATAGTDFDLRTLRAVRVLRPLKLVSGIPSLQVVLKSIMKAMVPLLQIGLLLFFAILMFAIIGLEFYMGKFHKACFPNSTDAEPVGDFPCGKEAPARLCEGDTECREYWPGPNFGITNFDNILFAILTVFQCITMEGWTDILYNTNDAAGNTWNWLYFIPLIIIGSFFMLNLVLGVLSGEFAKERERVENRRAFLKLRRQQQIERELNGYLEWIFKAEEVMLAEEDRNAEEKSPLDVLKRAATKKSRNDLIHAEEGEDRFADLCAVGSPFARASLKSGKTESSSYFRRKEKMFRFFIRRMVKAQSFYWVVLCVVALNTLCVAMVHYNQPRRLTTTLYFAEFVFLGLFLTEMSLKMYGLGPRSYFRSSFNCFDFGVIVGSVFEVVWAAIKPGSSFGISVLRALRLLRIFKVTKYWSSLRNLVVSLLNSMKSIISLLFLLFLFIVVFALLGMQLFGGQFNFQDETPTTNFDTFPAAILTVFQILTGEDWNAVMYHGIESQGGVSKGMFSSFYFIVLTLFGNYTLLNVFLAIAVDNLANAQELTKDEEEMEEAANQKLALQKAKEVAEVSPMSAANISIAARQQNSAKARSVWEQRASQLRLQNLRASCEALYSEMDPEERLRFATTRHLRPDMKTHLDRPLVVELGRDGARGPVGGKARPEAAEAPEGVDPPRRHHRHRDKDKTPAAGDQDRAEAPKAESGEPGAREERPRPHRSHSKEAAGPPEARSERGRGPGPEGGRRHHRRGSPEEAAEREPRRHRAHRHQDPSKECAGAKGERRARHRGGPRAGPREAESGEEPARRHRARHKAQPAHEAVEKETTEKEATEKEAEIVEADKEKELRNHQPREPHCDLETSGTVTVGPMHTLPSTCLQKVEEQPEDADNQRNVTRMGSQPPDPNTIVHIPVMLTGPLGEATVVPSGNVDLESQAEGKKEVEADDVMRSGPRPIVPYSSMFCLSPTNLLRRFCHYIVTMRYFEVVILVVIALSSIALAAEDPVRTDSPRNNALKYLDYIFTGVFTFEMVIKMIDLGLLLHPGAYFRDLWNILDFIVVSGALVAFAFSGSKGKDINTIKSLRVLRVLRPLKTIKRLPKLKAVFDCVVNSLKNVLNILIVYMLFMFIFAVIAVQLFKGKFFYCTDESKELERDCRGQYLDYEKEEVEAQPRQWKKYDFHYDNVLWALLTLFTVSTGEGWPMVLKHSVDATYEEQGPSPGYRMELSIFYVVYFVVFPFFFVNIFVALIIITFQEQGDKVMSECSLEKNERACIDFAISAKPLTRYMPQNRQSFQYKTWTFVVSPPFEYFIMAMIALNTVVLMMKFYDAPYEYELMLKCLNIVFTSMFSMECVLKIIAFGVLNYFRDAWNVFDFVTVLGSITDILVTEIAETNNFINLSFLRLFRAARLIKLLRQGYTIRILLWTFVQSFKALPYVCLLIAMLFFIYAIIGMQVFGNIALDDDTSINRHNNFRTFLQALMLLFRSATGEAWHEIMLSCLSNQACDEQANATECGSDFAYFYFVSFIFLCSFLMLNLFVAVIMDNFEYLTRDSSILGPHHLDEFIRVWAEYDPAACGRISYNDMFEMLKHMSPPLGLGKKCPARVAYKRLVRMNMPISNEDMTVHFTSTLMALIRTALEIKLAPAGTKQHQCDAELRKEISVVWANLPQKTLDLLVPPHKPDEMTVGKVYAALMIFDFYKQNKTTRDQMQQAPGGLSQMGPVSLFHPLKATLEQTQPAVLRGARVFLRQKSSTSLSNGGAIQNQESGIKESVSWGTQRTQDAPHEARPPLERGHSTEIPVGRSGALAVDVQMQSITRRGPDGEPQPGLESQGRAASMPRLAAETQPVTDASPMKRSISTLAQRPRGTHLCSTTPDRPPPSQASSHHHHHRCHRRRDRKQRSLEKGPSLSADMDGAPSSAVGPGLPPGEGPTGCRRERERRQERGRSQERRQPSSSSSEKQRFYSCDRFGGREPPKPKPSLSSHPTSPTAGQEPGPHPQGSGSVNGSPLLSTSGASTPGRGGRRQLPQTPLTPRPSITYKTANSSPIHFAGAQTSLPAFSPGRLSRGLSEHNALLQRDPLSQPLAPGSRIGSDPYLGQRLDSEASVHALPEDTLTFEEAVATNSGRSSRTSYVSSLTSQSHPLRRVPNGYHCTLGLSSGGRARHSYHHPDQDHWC", "T3 sequence (Q02410 whole entry)": "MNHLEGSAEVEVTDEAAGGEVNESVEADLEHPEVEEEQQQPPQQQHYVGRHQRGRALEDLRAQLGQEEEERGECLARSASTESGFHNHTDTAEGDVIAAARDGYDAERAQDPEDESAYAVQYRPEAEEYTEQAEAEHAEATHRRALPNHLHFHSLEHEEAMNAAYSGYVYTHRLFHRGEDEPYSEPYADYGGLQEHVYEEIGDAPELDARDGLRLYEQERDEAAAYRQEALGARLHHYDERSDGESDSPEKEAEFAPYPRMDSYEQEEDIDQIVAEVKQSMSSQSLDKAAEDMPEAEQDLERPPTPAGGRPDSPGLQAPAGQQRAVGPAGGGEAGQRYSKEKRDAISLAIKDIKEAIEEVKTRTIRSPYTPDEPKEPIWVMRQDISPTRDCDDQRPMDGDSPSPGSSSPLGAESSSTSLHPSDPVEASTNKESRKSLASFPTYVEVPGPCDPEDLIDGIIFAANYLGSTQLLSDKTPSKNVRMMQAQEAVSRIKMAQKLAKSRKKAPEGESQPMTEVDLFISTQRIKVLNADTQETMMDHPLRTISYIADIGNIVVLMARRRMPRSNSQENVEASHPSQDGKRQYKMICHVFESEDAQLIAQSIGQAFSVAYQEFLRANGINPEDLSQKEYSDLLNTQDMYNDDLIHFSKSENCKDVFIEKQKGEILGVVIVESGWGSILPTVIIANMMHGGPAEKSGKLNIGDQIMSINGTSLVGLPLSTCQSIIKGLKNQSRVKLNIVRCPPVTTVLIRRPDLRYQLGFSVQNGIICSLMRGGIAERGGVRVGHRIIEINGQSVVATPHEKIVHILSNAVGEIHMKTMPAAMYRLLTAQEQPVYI", "assay_type": "protein assay"}, "[7]": {"molecular_target": "T3, Voltage-gated N-type calcium channel alpha-1B subunit/Amyloid beta A4 precursor protein-binding family A member 1", "assay_type": "protein assay", "remark": "listed apart in the source"}, "BJ [8]": {"tested_on": "BJ", "assay": "cells", "assay_type": "functional, cell-based", "details": "Homo sapiens"}, "[9]": {"assay": "DRD fibroblast viability loss – cell-based, non-viral oncogenic, luminescence, dose response (AID 1934)", "assay_type": "functional", "details": "Homo sapiens"}, "BJ [10]": {"tested_on": "BJ", "assay": "BJ-TERT-LT-ST fibroblast viability loss – cell-based, RAS-independent, luminescence, dose response (AID 1935)", "assay_type": "functional", "details": "Homo sapiens"}, "[11]": {"assay": "Luminescence Cell-Based Dose Retest to Confirm Inhibitors of Cancer Stem Cells. [Related pubchem assays (depositor defined):AID2717, AID2721]", "assay_type": "functional", "details": "Homo sapiens"}, "BJ [12]": {"tested_on": "BJ", "assay": "BJ-TERT fibroblast viability loss – cell-based, RAS-independent, luminescence, dose response (AID 1933)", "assay_type": "functional", "details": "Homo sapiens"}, "[13]": {"assay": "blockade of melanocortin 4 receptor signaling – cell-based, plate reader, cherry pick, counter-screen for LGR2 antagonist project, dose response (AID 743444)", "assay_type": "functional"}, "[14]": {"molecular_target": "Glucose-6-phosphate 1-dehydrogenase (Homo sapiens, UniProt P11413)", "sequence (P11413 whole entry)": "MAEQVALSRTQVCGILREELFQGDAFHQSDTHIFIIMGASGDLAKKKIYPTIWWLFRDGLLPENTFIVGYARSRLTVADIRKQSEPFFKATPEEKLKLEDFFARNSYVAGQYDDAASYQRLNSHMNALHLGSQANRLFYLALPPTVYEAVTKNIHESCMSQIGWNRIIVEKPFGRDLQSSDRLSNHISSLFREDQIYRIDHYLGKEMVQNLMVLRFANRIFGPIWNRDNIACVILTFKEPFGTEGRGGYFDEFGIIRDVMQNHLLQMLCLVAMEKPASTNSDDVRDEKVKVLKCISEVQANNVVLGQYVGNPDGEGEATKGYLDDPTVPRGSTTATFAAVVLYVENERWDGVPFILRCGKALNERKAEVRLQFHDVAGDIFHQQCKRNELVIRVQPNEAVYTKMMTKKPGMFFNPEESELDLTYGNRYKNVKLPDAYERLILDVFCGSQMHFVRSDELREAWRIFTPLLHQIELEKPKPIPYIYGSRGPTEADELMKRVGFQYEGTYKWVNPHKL", "assay": "inhibition of Homo sapiens G6PD, dose series – biochemical, fluorescence, selectivity assay for P. falciparum G6PD inhibitor project, dose response (AID 504792)", "assay_type": "functional"}, "[15]": {"assay": "A549 cell cytotoxicity, dose response, cytotoxicity control, plate reader, cherry-pick, antagonist series (AID 743412)", "assay_type": "functional, cell-based"}, "[16]": {"assay": "blockers of bursicon-stimulated LGR2 cAMP reporter – cell-based, HEK293, CRE-luciferase reporter, cherry pick, set 2, dose response (AID 743343)", "assay_type": "functional"}, "[17]": {"molecular_target": "T4, High affinity choline transporter 1 (Homo sapiens, UniProt Q9GZV3)", "T4 sequence (Q9GZV3 whole entry)": "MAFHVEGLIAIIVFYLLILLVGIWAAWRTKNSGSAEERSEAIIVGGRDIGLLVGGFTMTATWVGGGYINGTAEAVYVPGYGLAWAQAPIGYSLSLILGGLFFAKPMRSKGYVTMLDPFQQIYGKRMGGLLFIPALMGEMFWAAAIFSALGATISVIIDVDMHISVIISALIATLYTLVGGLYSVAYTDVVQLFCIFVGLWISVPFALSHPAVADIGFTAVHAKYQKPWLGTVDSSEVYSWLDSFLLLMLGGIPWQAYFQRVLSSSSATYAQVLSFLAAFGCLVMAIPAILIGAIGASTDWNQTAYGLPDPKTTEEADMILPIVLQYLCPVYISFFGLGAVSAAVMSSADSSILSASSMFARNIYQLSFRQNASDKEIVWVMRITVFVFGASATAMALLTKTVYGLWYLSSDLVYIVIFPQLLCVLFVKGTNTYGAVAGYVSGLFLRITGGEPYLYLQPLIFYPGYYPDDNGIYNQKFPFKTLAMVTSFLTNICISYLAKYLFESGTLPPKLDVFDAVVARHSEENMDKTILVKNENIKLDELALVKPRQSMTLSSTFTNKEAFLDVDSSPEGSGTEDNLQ", "assay": "human choline transporter blockers, potency – cell-based, 5-point CRC, membrane potential dye, dose response (AID 504840)", "assay_type": "functional"}}, "note": "Active and inactive are the calls of the source.", "data": [{"smiles": "Cc1sc(NC(=S)Nc2ccc(F)cc2)c(C(N)=O)c1C", "values": [{"measurement": "EC50", "setting": "[1]", "result": "9.36 µM (active)"}, {"measurement": "EC50", "setting": "[2]", "result": "> 79.4 µM (not active)"}, {"measurement": "IC50", "setting": "Leucine aminopeptidase", "result": "53.1 µM (active)"}, {"measurement": "IC50", "setting": "[3]", "result": "> 66 µM (inactive)"}, {"measurement": "IC50", "setting": "[4]", "result": "> 66 µM (inactive)"}, {"measurement": "EC50", "setting": "[5]", "result": "9.42 µM (active)"}]}, {"smiles": "O=C(Nc1ccc(F)cc1)C1=CC(=O)N2CCN=C2S1", "values": [{"measurement": "IC50", "setting": "[6]", "result": "> 50 µM (inactive)"}, {"measurement": "IC50", "setting": "[7]", "result": "10.7 µM (active)"}]}, {"smiles": "O=C(COC(=O)CNC(=O)c1ccc(-c2ccccc2)cc1)NCc1ccco1", "values": [{"measurement": "IC50", "setting": "[6]", "result": "49.5 µM (active)"}, {"measurement": "IC50", "setting": "[7]", "result": "5.35 µM (active)"}]}, {"smiles": "CN(C)CCCNc1ccc(-c2cc(Nc3cccc(Cl)c3)ncn2)cn1", "values": [{"measurement": "EC50", "setting": "BJ [8]", "result": "> 150 µM (not active)"}, {"measurement": "EC50", "setting": "[9]", "result": "22.6 µM (active)"}, {"measurement": "EC50", "setting": "BJ [10]", "result": "> 75 µM (not active)"}, {"measurement": "AC50", "setting": "[11]", "result": "4.54 µM (active)"}, {"measurement": "EC50", "setting": "BJ [12]", "result": "14.1 µM (active)"}]}, {"smiles": "CSc1nnc(NC(=O)c2ccc3c(c2)OCO3)s1", "values": [{"measurement": "AC50", "setting": "[13]", "result": "1.86 µM (active)"}, {"measurement": "IC50", "setting": "[14]", "result": "22.5 µM (inactive)"}, {"measurement": "AC50", "setting": "[15]", "result": "> 52 µM (inactive)"}, {"measurement": "AC50", "setting": "[16]", "result": "1.72 µM (active)"}]}, {"smiles": "O=C(NCc1cccnc1)c1ccc(COc2ccccc2Cl)o1", "values": [{"measurement": "IC50", "setting": "[17]", "result": "14.5 µM (active)"}]}, {"smiles": "Oc1ccc(/C=N/NC(=S)Nc2cccnc2)cc1O", "values": [{"measurement": "IC50", "setting": "Leucine aminopeptidase", "result": "49.6 µM (active)"}]}, {"smiles": "CNS(=O)(=O)c1ccc(-c2ccc(C=C3C(=O)NC(=O)NC3=O)o2)cc1", "values": [{"measurement": "IC50", "setting": "[14]", "result": "51.2 µM (inactive)"}]}, {"smiles": "O=S(=O)(c1ccccc1F)N1CCN(CCc2ccccc2)CC1", "values": [{"measurement": "IC50", "setting": "[17]", "result": "5.45 µM (active)"}]}, {"smiles": "CCn1c(=O)cc(SCC(=O)Nc2cccnc2)c2ccccc21", "values": [{"measurement": "EC50", "setting": "[1]", "result": "> 79.4 µM (inactive)"}, {"measurement": "EC50", "setting": "[2]", "result": "> 79.4 µM (not active)"}, {"measurement": "EC50", "setting": "[5]", "result": "> 79.4 µM (not active)"}]}, {"smiles": "Cc1cc(=O)oc2cc(NC(=O)c3cccc(Br)c3)ccc12", "values": [{"measurement": "IC50", "setting": "[6]", "result": "> 50 µM (inactive)"}, {"measurement": "IC50", "setting": "[7]", "result": "5.32 µM (active)"}]}, {"smiles": "Cc1ccc(S(=O)(=O)Nc2nncs2)cc1", "values": [{"measurement": "IC50", "setting": "Leucine aminopeptidase", "result": "23.2 µM (active)"}]}]}
